{
  "source": "paper PMC6312236",
  "about": "“Functional characterization reveals that zebrafish CFTR prefers to occupy closed channel conformations” (PLoS ONE, 2018)",
  "assay_in_all_cases": "inside-out patch clamp, macroscopic current",
  "type_in_all_cases": "biochemical",
  "key": {"[1]": {"target": "T1, WT-nzCFTR (native form of zebrafish CFTR) (Danio rerio, UniProt Q1LX78)", "T1 construct": "full-length wild type, native (not codon-optimized) cDNA from M. Bagnat lab, co-transfected with peGFP-C3 in CHO cells; PKA-phosphorylated in patches", "T1 sequence (Q1LX78 1-1485)": "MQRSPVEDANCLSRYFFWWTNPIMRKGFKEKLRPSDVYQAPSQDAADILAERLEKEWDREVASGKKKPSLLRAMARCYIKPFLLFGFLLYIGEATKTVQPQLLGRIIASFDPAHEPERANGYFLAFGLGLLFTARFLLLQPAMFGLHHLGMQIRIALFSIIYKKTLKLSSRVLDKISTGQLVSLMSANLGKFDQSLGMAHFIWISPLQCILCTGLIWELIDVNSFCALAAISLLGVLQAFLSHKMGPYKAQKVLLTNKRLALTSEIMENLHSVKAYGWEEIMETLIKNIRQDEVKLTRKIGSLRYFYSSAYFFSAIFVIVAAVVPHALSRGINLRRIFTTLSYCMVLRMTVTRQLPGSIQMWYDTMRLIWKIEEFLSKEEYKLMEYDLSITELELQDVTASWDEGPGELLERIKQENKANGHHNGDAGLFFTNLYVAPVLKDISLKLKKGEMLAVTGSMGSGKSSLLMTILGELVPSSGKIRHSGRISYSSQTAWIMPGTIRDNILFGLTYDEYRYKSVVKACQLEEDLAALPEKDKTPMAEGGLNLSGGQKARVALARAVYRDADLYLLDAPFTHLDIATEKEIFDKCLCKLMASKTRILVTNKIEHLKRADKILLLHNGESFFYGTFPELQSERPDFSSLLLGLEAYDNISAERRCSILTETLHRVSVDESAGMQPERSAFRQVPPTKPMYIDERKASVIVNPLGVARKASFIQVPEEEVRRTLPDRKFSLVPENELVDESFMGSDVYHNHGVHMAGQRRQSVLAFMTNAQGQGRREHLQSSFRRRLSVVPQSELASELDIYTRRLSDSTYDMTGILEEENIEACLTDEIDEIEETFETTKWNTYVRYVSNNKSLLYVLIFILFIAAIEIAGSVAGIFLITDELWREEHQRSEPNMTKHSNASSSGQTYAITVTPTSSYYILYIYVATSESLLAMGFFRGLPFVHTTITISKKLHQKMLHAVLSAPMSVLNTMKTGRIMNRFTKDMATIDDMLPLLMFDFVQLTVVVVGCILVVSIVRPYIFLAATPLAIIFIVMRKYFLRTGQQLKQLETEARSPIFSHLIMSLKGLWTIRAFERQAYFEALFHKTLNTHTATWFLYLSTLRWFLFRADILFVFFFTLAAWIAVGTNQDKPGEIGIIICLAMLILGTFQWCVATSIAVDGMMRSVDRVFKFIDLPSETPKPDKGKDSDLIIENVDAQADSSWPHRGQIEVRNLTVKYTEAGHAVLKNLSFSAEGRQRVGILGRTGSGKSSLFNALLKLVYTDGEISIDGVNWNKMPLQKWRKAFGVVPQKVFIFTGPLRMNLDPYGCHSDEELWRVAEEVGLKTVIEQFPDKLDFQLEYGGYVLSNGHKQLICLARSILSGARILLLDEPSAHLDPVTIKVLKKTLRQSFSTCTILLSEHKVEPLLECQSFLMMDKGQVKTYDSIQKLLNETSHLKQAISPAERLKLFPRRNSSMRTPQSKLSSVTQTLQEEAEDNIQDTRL", "conditions": "10 μM inhibitor, PKA-phosphorylated channel, pH 7.4, 22-24 °C"}, "[2]": {"target": "T2, WT-zCFTR (codon optimized zebrafish CFTR) (Danio rerio, UniProt Q1LX78)", "T2 construct": "full-length wild type, codon-optimized cDNA (from J. Chen), co-transfected with peGFP-C3 in CHO cells; PKA-phosphorylated in patches", "T2 sequence (Q1LX78 1-1485)": "T1 sequence (Q1LX78 1-1485)", "conditions": "10 μM inhibitor, PKA-phosphorylated channel, pH 7.4, 22-24 °C"}, "[3]": {"target": "T2, WT-zCFTR (codon optimized zebrafish CFTR)", "conditions": "50 μM P-ATP relative to 2 mM ATP, PKA-phosphorylated channel, pH 7.4"}},
  "data": [
    {"smiles": "O=C(O)c1ccc(/C=C2\\SC(=S)N(c3cccc(C(F)(F)F)c3)C2=O)cc1", "note": "[CFTRinh-172]", "values": [
      {"measurement": "inhibition ratio at 10 μM", "setting": "[1]", "value": "0.30 ± 0.04"},
      {"measurement": "inhibition ratio at 10 μM", "setting": "[2]", "value": "0.27 ± 0.03"}
    ]},
    {"smiles": "O=P(O)(O)OP(=O)(O)OP(=O)(O)OC[C@H]1O[C@@H](n2cnc3c(NCCc4ccccc4)ncnc32)[C@H](O)[C@@H]1O", "note": "[N6‐Phenylethyl‐ATP]", "values": [
      {"measurement": "IP-ATP/IATP", "setting": "[3]", "value": "0.88 ± 0.04"}
    ]}
  ]
}
